Key:
Experiment in all cases: relative viability (nuclei count vs DMSO), 5 days (fraction); higher = more cells survive
IPA-3 + AZD7762 = compound: C1=CC=C2C(=C1)C=CC(=C2SSC3=C(C=CC4=CC=CC=C43)O)O [IPA-3] + NC(=O)Nc1cc(-c2cccc(F)c2)sc1C(=O)N[C@H]1CCCNC1 [AZD7762] (partner 0.2 µM)
Outline: (§1)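 Relative viability equals treated-well nuclei counts divided by vehicle-well nuclei counts. Counts came from 4× images of lung cancer cell lines grown in 1536-well plates for 5 days after pin-tool dosing on the day after seeding. Dosing used one drug alone or a fixed anchor-drug dose plus five library-drug doses (not always all listed) in √10 steps, and values are medians of duplicate plates.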

Doramapimod + Linsitinib = compound: Cc1ccc(-n2nc(C(C)(C)C)cc2NC(=O)Nc2ccc(OCCN3CCOCC3)c3ccccc23)cc1 [Doramapimod] + C[C@]1(O)C[C@@H](c2nc(-c3ccc4ccc(-c5ccccc5)nc4c3)c3c(N)nccn32)C1 [Linsitinib] (partner 1 µM)
Outline: as §1

[1] = compound: Cc1ccc(-n2nc(C(C)(C)C)cc2NC(=O)Nc2ccc(OCCN3CCOCC3)c3ccccc23)cc1 [Doramapimod] + CC(=O)c1c(C)c2cnc(Nc3ccc(N4CCNCC4)cn3)nc2n(C2CCCC2)c1=O [Palbociclib] (partner 0.5 µM)
Outline: as §1

RAF265 + Palbociclib = compound: Cn1c(Nc2ccc(C(F)(F)F)cc2)nc2cc(Oc3ccnc(-c4ncc(C(F)(F)F)[nH]4)c3)ccc21 [RAF265] + CC(=O)c1c(C)c2cnc(Nc3ccc(N4CCNCC4)cn3)nc2n(C2CCCC2)c1=O [Palbociclib] (partner 0.5 µM)
Outline: as §1

| Cell Line | relative viability (IPA-3 + AZD7762; first compound 0.2 µM) | relative viability (IPA-3 + AZD7762; first compound 0.6325 µM) | relative viability (IPA-3 + AZD7762; first compound 2 µM) | relative viability (IPA-3 + AZD7762; first compound 6.325 µM) | relative viability (IPA-3 + AZD7762; first compound 20 µM) | relative viability (Doramapimod + Linsitinib; first compound 0.02 µM) | relative viability (Doramapimod + Linsitinib; first compound 0.06325 µM) | relative viability (Doramapimod + Linsitinib; first compound 0.2 µM) | relative viability (Doramapimod + Linsitinib; first compound 0.6325 µM) | relative viability (Doramapimod + Linsitinib; first compound 2 µM) | relative viability ([1]; first compound 0.02 µM) | relative viability ([1]; first compound 0.06325 µM) | relative viability ([1]; first compound 0.2 µM) | relative viability ([1]; first compound 0.6325 µM) | relative viability ([1]; first compound 2 µM) | relative viability (RAF265 + Palbociclib; first compound 0.01 µM) | relative viability (RAF265 + Palbociclib; first compound 0.03162 µM) | relative viability (RAF265 + Palbociclib; first compound 0.1 µM) | relative viability (RAF265 + Palbociclib; first compound 0.3162 µM) | relative viability (RAF265 + Palbociclib; first compound 1 µM) |
| --- | --- | --- | --- | --- | --- | --- | --- | --- | --- | --- | --- | --- | --- | --- | --- | --- | --- | --- | --- | --- |
| NCI-H1944 | 0.766 | 0.492 | 0.536 | 0.718 | 0.541 | 1.05 | 1.14 | 1.03 | 1.31 | 1.08 | 0.321 | 0.306 | 0.322 | 0.307 | 0.271 | 0.356 | 0.367 | 0.291 | 0.261 | 0.185 |
| NCI-H1975 | 0.825 | 0.731 | 0.778 | 0.868 | 0.775 | 1.07 | 0.956 | 0.885 | 0.98 | 0.926 | 0.583 | 0.576 | 0.488 | 0.596 | 0.512 | 0.609 | 0.396 | 0.263 | 0.184 | 0.182 |
| NCI-H1993 | 0.971 | 0.922 | 0.85 | 0.738 | 0.726 | 0.663 | 0.708 | 0.795 | 0.753 | 0.755 | 0.641 | 0.58 | 0.621 | 0.596 | 0.504 | 0.584 | 0.595 | 0.661 | 0.575 | 0.507 |
| NCI-H2085 | 1.11 | 0.956 | 1.02 | 0.893 | 1.21 | 0.898 | 0.939 | 0.873 | 0.876 | 0.864 | 0.525 | 0.527 | 0.5 | 0.52 | 0.529 | 0.49 | 0.477 | 0.483 | 0.506 | 0.52 |
| NCI-H2087 | 1.52 | 1.29 | 1.43 | 1.07 | 1.35 | 0.976 | 1.13 | 0.939 | 0.962 | 0.951 | 0.237 | 0.215 | 0.293 | 0.27 | 0.219 | 0.238 | 0.207 | 0.181 | 0.164 | 0.159 |
| NCI-H2126 | 1.05 | 0.974 | 1 | 0.958 | 1.05 | 0.668 | 0.678 | 0.642 | 0.693 | 0.625 | 0.378 | 0.352 | 0.373 | 0.336 | 0.326 | 0.373 | 0.354 | 0.377 | 0.361 | 0.365 |
| NCI-H2347 | 0.789 | 0.604 | 0.777 | 0.738 | 0.904 | 1.04 | 0.974 | 0.96 | 1.01 | 0.846 | 0.474 | 0.466 | 0.483 | 0.383 | 0.513 | 0.485 | 0.405 | 0.406 | 0.391 | 0.363 |
| NCI-H2405 | 0.89 | 0.806 | 0.847 | 0.771 | 0.73 | 0.973 | 0.869 | 0.933 | 1.27 | 0.852 | 0.531 | 0.487 | 0.505 | 0.575 | 0.495 | 0.552 | 0.497 | 0.499 | 0.491 | 0.282 |
| NCI-H3122 | 1.02 | 1.01 | 0.995 | 1.11 | 0.999 | 1.04 | 1.07 | 1.04 | 0.971 | 0.988 | 0.18 | 0.176 | 0.191 | 0.2 | 0.213 | 0.18 | 0.216 | 0.19 | 0.198 | 0.19 |
| PC-3 [JPC-3] | 0.926 | 1.34 | 0.916 | 0.741 | 0.807 | 1.07 | 0.987 | 0.987 | 1.06 | 0.998 | 0.588 | 0.549 | 0.549 | 0.571 | 0.565 | 0.55 | 0.538 | 0.524 | 0.437 | 0.429 |
| PC-14 | 0.402 | 0.362 | 0.431 | 0.328 | 0.407 | 1.01 | 1.03 | 0.981 | 0.931 | 0.9 | 0.552 | 0.594 | 0.487 | 0.552 | 0.508 | 0.47 | 0.495 | 0.519 | – | 0.35 |
| RERF-LC-KJ | 1.08 | 0.955 | 1.01 | 0.921 | 1.15 | 0.871 | 0.912 | 0.899 | 0.952 | 0.864 | 1.11 | 1.04 | 1.06 | 1.17 | 1.2 | 1.06 | 1.23 | 1.05 | 0.885 | 0.832 |
